# Assay results: patent EP0097439A2, “A crystalline prostaglandin salt” (THE UPJOHN COMPANY, priority 1982, dated 1984)
# Where two headings read alike, the source gives them in different places.
# Test: Plasma levels of 9-deoxo-16,16-dimethyl-9-methylene-PGE2 by radioimmunoassay after insertion of a suppository
# Assay type: in vivo, Rhesus monkeys (Macaca mulatta)
# Conditions: for concentration at 0.25 h / concentration at 1 h / concentration at 1.5 h / concentration at 2 h / concentration at 3 h / concentration at 4 h / concentration at 6 h / concentration at 24 h / concentration at 0.5 h: rhesus monkey, plasma, 30 mg, read-out: Drug Levels
# From the text: A. Midtrimester pregnant female Rhesus monkeys (Macaca mulatta) are used. (The first day of menstrual bleeding is designated Day 1 of the menstrual cycle; the first day a female is placed with a male for breeding is designated Day 1 of pregnancy. Pregnancy is confirmed by abdominal palpation of the uterus.)
# Blood samples are collected into heparinized syringes at specified times following insertion of a suppository in pregnant or non- pregnant monkeys. Plasma is extracted and assayed for 9-deoxo-16,16-dimethyl-9-methylene-PGE2 content by radioimmunoassay.
# C. Six suppository lots are prepared (4), each containing 9- deoxo-16,16-dimethyl-9-methylene-PGE2 or its crystalline potassium salt (Examples 1 and 2). Two lots are made with Witepsol H15 alone as the suppository base, two with Witepsol HIS wax plus 2% colloidal silicon dioxide (CSD) and two with Witepsol H15 plus 2% CSD plus 10% triacetin. Suppositories are prepared using Witepsol H15 suppository wax. Free acid or potassium salt is dispersed in the hot wax using a homogenizer. Two percent colloidal silicon dioxide (CSD) is mixed in by further homogenization. In the third formulation, triacetin (10%) is added before the CSD and then homogenized for one minute. Suppositories are formed in 800 mg aluminum molds and are stored at 4°C until used.
# D. The plasma levels of 9-deoxo-16,16-d1methy1-9-methy1ene-PGE2 in monkeys treated with 6 formulations containing either 9-deoxo-16,16-dimethyl-9-methylene-PGE2 free acid or potassium salt are shown in Tables 1-6. In general, higher blood levels are measured in pregnant Rhesus monkeys than in non-pregnant monkeys.
# [1] = Monkey #1, 30 mg Free Acid in H15 Suppositories
# [2] = Monkey #2, 30 mg Free Acid in H15 Suppositories
# [3] = Monkey #3 (pregnant animal with uterine recording), 30 mg Free Acid in H15 Suppositories
# [4] = Monkey #7, 30 mg Free Acid in H15 Plus 2% CSD Suppositories
# [5] = Monkey #8, 30 mg Free Acid in H15 Plus 2% CSD Suppositories
# [6] = Monkey #9 (pregnant animal with uterine recording), 30 mg Free Acid in H15 Plus 2% CSD Suppositories
# [7] = Monkey #13, 30 mg Free Acid in H15 Plus 2% CSD + 10% Triacetin Suppositories
# [8] = Monkey #14, 30 mg Free Acid in H15 Plus 2% CSD + 10% Triacetin Suppositories
# [9] = Monkey #15 (pregnant animal with uterine recording), 30 mg Free Acid in H15 Plus 2% CSD + 10% Triacetin Suppositories
compound,measurement,setting,value
"C=C1C[C@@H](O)[C@H](/C=C/[C@@H](O)C(C)(C)CCCC)[C@H]1C/C=C\CCCC(=O)O [Free Acid, 9-deoxo-16,16-dimethyl-9-methylene-PGE2]","bioavailability (drug plasma levels and uterine activity), free acid versus potassium salt","Rhesus monkeys, 30 mg (acid equivalents) per dose in three suppository formulations",equally bioavailable
same,concentration at 0.25 h,[1],5.14 ng/mL
same,concentration at 1 h,"Monkey #1, 1.0 Hours, 30 mg Free Acid in H15 Suppositories",4.39 ng/mL
same,concentration at 1.5 h,[1],7.89 ng/mL
same,concentration at 2 h,"Monkey #1, 2.0 Hours, 30 mg Free Acid in H15 Suppositories",4.16 ng/mL
same,concentration at 3 h,"Monkey #1, 3.0 Hours, 30 mg Free Acid in H15 Suppositories",0.23 ng/mL
same,concentration at 4 h,"Monkey #1, 4.0 Hours, 30 mg Free Acid in H15 Suppositories",7.43 ng/mL
same,concentration at 6 h,"Monkey #1, 6.0 Hours, 30 mg Free Acid in H15 Suppositories",10.1 ng/mL
same,concentration at 24 h,"Monkey #1, 24.0 Hours, 30 mg Free Acid in H15 Suppositories",7.68 ng/mL
same,concentration at 0.5 h,"Monkey #1, .5 Hours, 30 mg Free Acid in H15 Suppositories",1.69 ng/mL
same,concentration at 0.25 h,[2],0.61 ng/mL
same,concentration at 1.5 h,[2],3.35 ng/mL
same,concentration at 2 h,"Monkey #2, 2.0 Hours, 30 mg Free Acid in H15 Suppositories",5.56 ng/mL
same,concentration at 3 h,"Monkey #2, 3.0 Hours, 30 mg Free Acid in H15 Suppositories",13 ng/mL
same,concentration at 4 h,"Monkey #2, 4.0 Hours, 30 mg Free Acid in H15 Suppositories",14.7 ng/mL
same,concentration at 6 h,"Monkey #2, 6.0 Hours, 30 mg Free Acid in H15 Suppositories",17.3 ng/mL
same,concentration at 24 h,"Monkey #2, 24.0 Hours, 30 mg Free Acid in H15 Suppositories",4.97 ng/mL
same,concentration at 0.25 h,[3],142 ng/mL
same,concentration at 1 h,"Monkey #3 (pregnant animal with uterine recording), 1.0 Hours, 30 mg Free Acid in H15 Suppositories",93.9 ng/mL
same,concentration at 1.5 h,[3],66.8 ng/mL
same,concentration at 2 h,"Monkey #3 (pregnant animal with uterine recording), 2.0 Hours, 30 mg Free Acid in H15 Suppositories",60.8 ng/mL
same,concentration at 3 h,"Monkey #3 (pregnant animal with uterine recording), 3.0 Hours, 30 mg Free Acid in H15 Suppositories",56.1 ng/mL
same,concentration at 4 h,"Monkey #3 (pregnant animal with uterine recording), 4.0 Hours, 30 mg Free Acid in H15 Suppositories",35.7 ng/mL
same,concentration at 6 h,"Monkey #3 (pregnant animal with uterine recording), 6.0 Hours, 30 mg Free Acid in H15 Suppositories",13.7 ng/mL
same,concentration at 24 h,"Monkey #3 (pregnant animal with uterine recording), 24.0 Hours, 30 mg Free Acid in H15 Suppositories",5.67 ng/mL
same,concentration at 0.5 h,"Monkey #3 (pregnant animal with uterine recording), .5 Hours, 30 mg Free Acid in H15 Suppositories",63.6 ng/mL
same,concentration at 0.25 h,[4],39.2 ng/mL
same,concentration at 0.5 h,"Monkey #7, 0.5 Hours, 30 mg Free Acid in H15 Plus 2% CSD Suppositories",44.5 ng/mL
same,concentration at 1 h,"Monkey #7, 1.0 Hours, 30 mg Free Acid in H15 Plus 2% CSD Suppositories",63.9 ng/mL
same,concentration at 1.5 h,[4],42.2 ng/mL
same,concentration at 2 h,"Monkey #7, 2 Hours, 30 mg Free Acid in H15 Plus 2% CSD Suppositories",37 ng/mL
same,concentration at 3 h,"Monkey #7, 3 Hours, 30 mg Free Acid in H15 Plus 2% CSD Suppositories",16.9 ng/mL
same,concentration at 4 h,"Monkey #7, 4 Hours, 30 mg Free Acid in H15 Plus 2% CSD Suppositories",13.2 ng/mL
same,concentration at 6 h,"Monkey #7, 6 Hours, 30 mg Free Acid in H15 Plus 2% CSD Suppositories",6.5 ng/mL
same,concentration at 24 h,"Monkey #7, 24 Hours, 30 mg Free Acid in H15 Plus 2% CSD Suppositories",4.01 ng/mL
same,concentration at 0.25 h,[5],51.4 ng/mL
same,concentration at 0.5 h,"Monkey #8, 0.5 Hours, 30 mg Free Acid in H15 Plus 2% CSD Suppositories",134 ng/mL
same,concentration at 1 h,"Monkey #8, 1.0 Hours, 30 mg Free Acid in H15 Plus 2% CSD Suppositories",88.2 ng/mL
same,concentration at 1.5 h,[5],61.1 ng/mL
same,concentration at 2 h,"Monkey #8, 2 Hours, 30 mg Free Acid in H15 Plus 2% CSD Suppositories",78.3 ng/mL
same,concentration at 3 h,"Monkey #8, 3 Hours, 30 mg Free Acid in H15 Plus 2% CSD Suppositories",29.1 ng/mL
same,concentration at 4 h,"Monkey #8, 4 Hours, 30 mg Free Acid in H15 Plus 2% CSD Suppositories",12.4 ng/mL
same,concentration at 6 h,"Monkey #8, 6 Hours, 30 mg Free Acid in H15 Plus 2% CSD Suppositories",2.49 ng/mL
same,concentration at 24 h,"Monkey #8, 24 Hours, 30 mg Free Acid in H15 Plus 2% CSD Suppositories",15.7 ng/mL
same,concentration at 0.25 h,[6],60.7 ng/mL
same,concentration at 0.5 h,"Monkey #9 (pregnant animal with uterine recording), 0.5 Hours, 30 mg Free Acid in H15 Plus 2% CSD Suppositories",52.2 ng/mL
same,concentration at 1 h,"Monkey #9 (pregnant animal with uterine recording), 1.0 Hours, 30 mg Free Acid in H15 Plus 2% CSD Suppositories",63.1 ng/mL
same,concentration at 1.5 h,[6],62.8 ng/mL
same,concentration at 2 h,"Monkey #9 (pregnant animal with uterine recording), 2 Hours, 30 mg Free Acid in H15 Plus 2% CSD Suppositories",62.9 ng/mL
same,concentration at 3 h,"Monkey #9 (pregnant animal with uterine recording), 3 Hours, 30 mg Free Acid in H15 Plus 2% CSD Suppositories",40.2 ng/mL
same,concentration at 4 h,"Monkey #9 (pregnant animal with uterine recording), 4 Hours, 30 mg Free Acid in H15 Plus 2% CSD Suppositories",57.8 ng/mL
same,concentration at 6 h,"Monkey #9 (pregnant animal with uterine recording), 6 Hours, 30 mg Free Acid in H15 Plus 2% CSD Suppositories",32 ng/mL
same,concentration at 24 h,"Monkey #9 (pregnant animal with uterine recording), 24 Hours, 30 mg Free Acid in H15 Plus 2% CSD Suppositories",21 ng/mL
same,concentration at 0.25 h,[7],12.6 ng/mL
same,concentration at 0.5 h,"Monkey #13, 0.5 Hours, 30 mg Free Acid in H15 Plus 2% CSD + 10% Triacetin Suppositories",9.25 ng/mL
same,concentration at 1 h,"Monkey #13, 1 Hours, 30 mg Free Acid in H15 Plus 2% CSD + 10% Triacetin Suppositories",2.8 ng/mL
same,concentration at 1.5 h,[7],3.09 ng/mL
same,concentration at 2 h,"Monkey #13, 2 Hours, 30 mg Free Acid in H15 Plus 2% CSD + 10% Triacetin Suppositories",5.46 ng/mL
same,concentration at 3 h,"Monkey #13, 3 Hours, 30 mg Free Acid in H15 Plus 2% CSD + 10% Triacetin Suppositories",15.1 ng/mL
same,concentration at 4 h,"Monkey #13, 4 Hours, 30 mg Free Acid in H15 Plus 2% CSD + 10% Triacetin Suppositories",22.5 ng/mL
same,concentration at 6 h,"Monkey #13, 6 Hours, 30 mg Free Acid in H15 Plus 2% CSD + 10% Triacetin Suppositories",23.8 ng/mL
same,concentration at 24 h,"Monkey #13, 24 Hours, 30 mg Free Acid in H15 Plus 2% CSD + 10% Triacetin Suppositories",26 ng/mL
same,concentration at 0.25 h,[8],18.8 ng/mL
same,concentration at 0.5 h,"Monkey #14, 0.5 Hours, 30 mg Free Acid in H15 Plus 2% CSD + 10% Triacetin Suppositories",36 ng/mL
same,concentration at 1 h,"Monkey #14, 1 Hours, 30 mg Free Acid in H15 Plus 2% CSD + 10% Triacetin Suppositories",25.1 ng/mL
same,concentration at 1.5 h,[8],32 ng/mL
same,concentration at 2 h,"Monkey #14, 2 Hours, 30 mg Free Acid in H15 Plus 2% CSD + 10% Triacetin Suppositories",28.7 ng/mL
same,concentration at 3 h,"Monkey #14, 3 Hours, 30 mg Free Acid in H15 Plus 2% CSD + 10% Triacetin Suppositories",20.2 ng/mL
same,concentration at 4 h,"Monkey #14, 4 Hours, 30 mg Free Acid in H15 Plus 2% CSD + 10% Triacetin Suppositories",16.6 ng/mL
same,concentration at 6 h,"Monkey #14, 6 Hours, 30 mg Free Acid in H15 Plus 2% CSD + 10% Triacetin Suppositories",16.2 ng/mL
same,concentration at 24 h,"Monkey #14, 24 Hours, 30 mg Free Acid in H15 Plus 2% CSD + 10% Triacetin Suppositories",12.9 ng/mL
same,concentration at 0.25 h,[9],119 ng/mL
same,concentration at 0.5 h,"Monkey #15 (pregnant animal with uterine recording), 0.5 Hours, 30 mg Free Acid in H15 Plus 2% CSD + 10% Triacetin Suppositories",154 ng/mL
same,concentration at 1 h,"Monkey #15 (pregnant animal with uterine recording), 1 Hours, 30 mg Free Acid in H15 Plus 2% CSD + 10% Triacetin Suppositories",154 ng/mL
same,concentration at 1.5 h,[9],26.8 ng/mL
same,concentration at 2 h,"Monkey #15 (pregnant animal with uterine recording), 2 Hours, 30 mg Free Acid in H15 Plus 2% CSD + 10% Triacetin Suppositories",44.8 ng/mL
same,concentration at 3 h,"Monkey #15 (pregnant animal with uterine recording), 3 Hours, 30 mg Free Acid in H15 Plus 2% CSD + 10% Triacetin Suppositories",65.9 ng/mL
same,concentration at 4 h,"Monkey #15 (pregnant animal with uterine recording), 4 Hours, 30 mg Free Acid in H15 Plus 2% CSD + 10% Triacetin Suppositories",22.1 ng/mL
same,concentration at 6 h,"Monkey #15 (pregnant animal with uterine recording), 6 Hours, 30 mg Free Acid in H15 Plus 2% CSD + 10% Triacetin Suppositories",13 ng/mL
same,concentration at 24 h,"Monkey #15 (pregnant animal with uterine recording), 24 Hours, 30 mg Free Acid in H15 Plus 2% CSD + 10% Triacetin Suppositories",2.76 ng/mL
